According to patent US20260347347A1, “2-AZA-AND 2-OXABICYCLO[2.1.1]HEXANE DERIVATIVES AS FACTOR XIIA ENZYME INHIBITORS” (KALVISTA PHARMACEUTICALS LIMITED, priority 2022, published 2026):

target: T1, Human Factor XIIa (Homo sapiens, UniProt P00748); experiment: Determination of FXIIa inhibition (in vitro IC50 assay, fluorogenic substrate H-DPro-Phe-Arg-AFC); assay type: biochemical; conditions: human Factor XIIa; fluorogenic substrate H-DPro-Phe-Arg-AFC at Km concentration; 5 min, 25 °C; class symbols; read-out: Human FXIIa IC50
T1 construct: purchased Enzyme Research Laboratories
T1 sequence (P00748 373-615 limits assumed): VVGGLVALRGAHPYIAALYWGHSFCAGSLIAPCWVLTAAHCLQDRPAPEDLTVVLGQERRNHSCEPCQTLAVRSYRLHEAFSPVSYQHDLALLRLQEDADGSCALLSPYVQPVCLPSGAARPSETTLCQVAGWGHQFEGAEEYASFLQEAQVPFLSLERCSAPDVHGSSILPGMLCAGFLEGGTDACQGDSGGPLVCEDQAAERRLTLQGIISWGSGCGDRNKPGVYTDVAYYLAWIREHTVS
T1 sequence (P00748 20-372 partner limits assumed): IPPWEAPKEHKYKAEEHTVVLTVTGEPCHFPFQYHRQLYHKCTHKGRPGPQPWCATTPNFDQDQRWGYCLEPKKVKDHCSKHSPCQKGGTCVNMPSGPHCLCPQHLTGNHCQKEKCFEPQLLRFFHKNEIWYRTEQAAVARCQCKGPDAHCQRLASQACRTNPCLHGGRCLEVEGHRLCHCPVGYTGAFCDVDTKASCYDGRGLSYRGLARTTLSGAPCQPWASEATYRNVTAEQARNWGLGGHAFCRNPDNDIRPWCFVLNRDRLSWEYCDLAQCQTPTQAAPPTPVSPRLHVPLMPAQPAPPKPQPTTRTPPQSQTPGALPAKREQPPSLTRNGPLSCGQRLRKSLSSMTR
Protocol: In vitro inhibition of Factor XIIa was determined using an IC50 assay based on standard literature methods (see e.g Baeriswyl et al., ACS Chem. Biol., 2015, 10 (8) 1861; Bouckaert et al., European Journal of Medicinal Chemistry 110 (2016) 181). Human Factor XIIa (Enzyme Research Laboratories) was incubated at 25 °C with the fluorogenic substrate H-DPro-Phe-Arg-AFC (Peptide Protein Science) and various concentrations of the test compound. Protease activity was measured by monitoring the accumulation of liberated fluorescence from the substrate over 5 min at 25 °C. The linear rate of fluorescence increase per minute was expressed as percentage (%) activity. The Km for the cleavage of the substrate by FXIIa was determined by standard transformation of the Michaelis-Menten equation. The compound inhibitor assays were performed at substrate Km concentration. IC50 values were calculated as the concentration of inhibitor giving 50% inhibition (IC50) of the uninhibited enzyme activity (100%).

SMILES	IC50
Cn1ccc(OCC23CN(C(=O)N[C@@H]4C[C@H]4c4ccccc4)C(CNc4cccc5c(N)nccc45)(C2)C3)cc1=O (racemic) [Example 60, rac-1-(((1-aminoisoquinolin-5-yl)amino)methyl)-4-(((1-methyl-2-oxo-1,2-dihydropyridin-4-yl)oxy)methyl)-N-((1R,2S)-2-phenylcyclopropyl)-2-azabicyclo[2.1.1]hexane-2-carboxamide]	0.001 to 0.01 µM
CO[C@H]1CC[C@H](CC(=O)N2CC3(COc4cc(C)n(C)c(=O)c4)CC2(CNc2cccc4c(N)nccc24)C3)CC1 (single isomer, unassigned) [Example 24, 4-((1-(((1-aminoisoquinolin-5-yl)amino)methyl)-2-(2-((1r,4r)-4-methoxycyclohexyl)acetyl)-2-azabicyclo[2.1.1]hexan-4-yl)methoxy)-1,6-dimethylpyridin-2(1H)-one]	0.01 to 0.1 µM
CO[C@H]1CC[C@@H](CC(=O)N2CC3(COc4cc(C)n(C)c(=O)c4)CC2(CNc2cccc4c(N)nccc24)C3)CC1 (single isomer, unassigned) [Example 25, 4-((1-(((1-aminoisoquinolin-5-yl)amino)methyl)-2-(2-((1s,4s)-4-methoxycyclohexyl)acetyl)-2-azabicyclo[2.1.1]hexan-4-yl)methoxy)-1,6-dimethylpyridin-2(1H)-one]	0.01 to 0.1 µM
Nc1nccc2c(NCC34CC(c5ncc(-c6ccccc6)o5)(CO3)C4)cccc12 [Example 1, N5-((4-(5-Phenyloxazol-2-yl)-2-oxabicyclo[2.1.1]hexan-1-yl)methyl)isoquinoline-1,5-diamine]	40 to 100 µM
Nc1nccc2c(NCC34CC(CN5C(=O)CC[C@H]5c5ccccc5)(CO3)C4)cccc12 [Example 2, (S)-1-((1-(((1-aminoisoquinolin-5-yl)amino)methyl)-2-oxabicyclo[2.1.1]hexan-4-yl)methyl)-5-phenylpyrrolidin-2-one]	3 to 10 µM
Cn1ccc(OCC23CN(C(=O)Cc4ccc5c(c4)CCO5)C(CNc4cccc5c(N)nccc45)(C2)C3)cc1=O [Example 3, 4-((1-(((1-aminoisoquinolin-5-yl)amino)methyl)-2-(2-(2,3-dihydrobenzofuran-5-yl)acetyl)-2-azabicyclo[2.1.1]hexan-4-yl)methoxy)-1-methylpyridin-2(1H)-one]	0.001 to 0.01 µM
Cn1ccc(OCC23CN(C(=O)C(C)(C)Oc4ccccc4)C(CNc4cccc5c(N)nccc45)(C2)C3)cc1=O [Example 4, 4-((1-(((1-aminoisoquinolin-5-yl)amino)methyl)-2-(2-methyl-2-phenoxypropanoyl)-2-azabicyclo[2.1.1]hexan-4-yl)methoxy)-1-methylpyridin-2(1H)-one]	0.1 to 0.3 µM
Cn1ccc(OCC23CN(C(=O)C4(Oc5ccccc5)CC4)C(CNc4cccc5c(N)nccc45)(C2)C3)cc1=O [Example 6, 4-((1-(((1-aminoisoquinolin-5-yl)amino)methyl)-2-(1-phenoxycyclopropane-1-carbonyl)-2-azabicyclo[2.1.1]hexan-4-yl)methoxy)-1-methylpyridin-2(1H)-one]	0.1 to 0.3 µM
Cn1ccc(OCC23CN(C(=O)C(C)(C)Cc4ccccc4)C(CNc4cccc5c(N)nccc45)(C2)C3)cc1=O [Example 7, 4-((1-(((1-aminoisoquinolin-5-yl)amino)methyl)-2-(2,2-dimethyl-3-phenylpropanoyl)-2-azabicyclo[2.1.1]hexan-4-yl)methoxy)-1-methylpyridin-2(1H)-one]	0.1 to 0.3 µM
Cn1ccc(OCC23CN(C(=O)C4(Cc5ccccc5)CC4)C(CNc4cccc5c(N)nccc45)(C2)C3)cc1=O [Example 8, 4-((1-(((1-aminoisoquinolin-5-yl)amino)methyl)-2-(1-benzylcyclopropane-1-carbonyl)-2-azabicyclo[2.1.1]hexan-4-yl)methoxy)-1-methylpyridin-2(1H)-one]	0.01 to 0.1 µM
Cn1ccc(OCC23CN(C(=O)CC4CCOCC4)C(CNc4cccc5c(N)nccc45)(C2)C3)cc1=O [Example 9, 4-((1-(((1-aminoisoquinolin-5-yl)amino)methyl)-2-(2-(tetrahydro-2H-pyran-4-yl)acetyl)-2-azabicyclo[2.1.1]hexan-4-yl)methoxy)-1-methylpyridin-2(1H)-one]	0.01 to 0.1 µM
Cn1ccc(OCC23CN(C(=O)C[C@H]4CCOC4)C(CNc4cccc5c(N)nccc45)(C2)C3)cc1=O [Example 10, (R)-4-((1-(((1-aminoisoquinolin-5-yl)amino)methyl)-2-(2-(tetrahydrofuran-3-yl)acetyl)-2-azabicyclo[2.1.1]hexan-4-yl)methoxy)-1-methylpyridin-2(1H)-one]	0.01 to 0.1 µM
Cn1ccc(OCC23CN(C(=O)C[C@@H]4CCOC4)C(CNc4cccc5c(N)nccc45)(C2)C3)cc1=O [Example 11, (S)-4-((1-(((1-aminoisoquinolin-5-yl)amino)methyl)-2-(2-(tetrahydrofuran-3-yl)acetyl)-2-azabicyclo[2.1.1]hexan-4-yl)methoxy)-1-methylpyridin-2(1H)-one]	0.01 to 0.1 µM
C[C@@H](C(=O)N1CC2(COc3ccn(C)c(=O)c3)CC1(CNc1cccc3c(N)nccc13)C2)c1ccccc1 [Example 12, (R)-4-((1-(((1-aminoisoquinolin-5-yl)amino)methyl)-2-(2-phenylpropanoyl)-2-azabicyclo[2.1.1]hexan-4-yl)methoxy)-1-methylpyridin-2(1H)-one]	0.01 to 0.1 µM
C[C@H](C(=O)N1CC2(COc3ccn(C)c(=O)c3)CC1(CNc1cccc3c(N)nccc13)C2)c1ccccc1 [Example 13, (S)-4-((1-(((1-aminoisoquinolin-5-yl)amino)methyl)-2-(2-phenylpropanoyl)-2-azabicyclo[2.1.1]hexan-4-yl)methoxy)-1-methylpyridin-2(1H)-one]	0.01 to 0.1 µM
Cn1ccc(OCC23CN(C(=O)CCc4ccc5c(c4)CCO5)C(CNc4cccc5c(N)nccc45)(C2)C3)cc1=O [Example 14, 4-((1-(((1-aminoisoquinolin-5-yl)amino)methyl)-2-(3-(2,3-dihydrobenzofuran-5-yl)propanoyl)-2-azabicyclo[2.1.1]hexan-4-yl)methoxy)-1-methylpyridin-2(1H)-one]	0.01 to 0.1 µM
Cn1ccc(OCC23CN(C(=O)Cc4ccc5c(c4)CCCO5)C(CNc4cccc5c(N)nccc45)(C2)C3)cc1=O [Example 15, 4-((1-(((1-Aminoisoquinolin-5-yl)amino)methyl)-2-(2-(chroman-6-yl)acetyl)-2-azabicyclo[2.1.1]hexan-4-yl)methoxy)-1-methylpyridin-2(1H)-one]	0.001 to 0.01 µM
CC(=O)N1CCC(CC(=O)N2CC3(COc4ccn(C)c(=O)c4)CC2(CNc2cccc4c(N)nccc24)C3)CC1 [Example 16, 4-((2-(2-(1-acetylpiperidin-4-yl)acetyl)-1-(((1-aminoisoquinolin-5-yl)amino)methyl)-2-azabicyclo[2.1.1]hexan-4-yl)methoxy)-1-methylpyridin-2(1H)-one]	0.01 to 0.1 µM
Cn1ccc(OCC23CN(C(=O)Cc4ccc5c(c4)NC(=O)CO5)C(CNc4cccc5c(N)nccc45)(C2)C3)cc1=O [Example 17, 6-(2-(1-(((1-aminoisoquinolin-5-yl)amino)methyl)-4-(((1-methyl-2-oxo-1,2-dihydropyridin-4-yl)oxy)methyl)-2-azabicyclo[2.1.1]hexan-2-yl)-2-oxoethyl)-2H-benzo[b][1,4]oxazin-3(4H)-one]	0.001 to 0.01 µM
Cn1ccc(OCC23CN(C(=O)C4(c5ccccc5)CC4)C(CNc4cccc5c(N)nccc45)(C2)C3)cc1=O [Example 18, 4-((1-(((1-aminoisoquinolin-5-yl)amino)methyl)-2-(1-phenylcyclopropane-1-carbonyl)-2-azabicyclo[2.1.1]hexan-4-yl)methoxy)-1-methylpyridin-2(1H)-one]	0.1 to 0.3 µM
Cn1ccc(CCC(=O)N2CC3(COc4ccn(C)c(=O)c4)CC2(CNc2cccc4c(N)nccc24)C3)cc1=O [Example 19, 4-((1-(((1-aminoisoquinolin-5-yl)amino)methyl)-2-(3-(1-methyl-2-oxo-1,2-dihydropyridin-4-yl)propanoyl)-2-azabicyclo[2.1.1]hexan-4-yl)methoxy)-1-methylpyridin-2(1H)-one]	0.01 to 0.1 µM
Cc1cc(OCC23CN(C(=O)CC45CCC(CC4)CC5)C(CNc4cccc5c(N)nccc45)(C2)C3)cc(=O)n1C [Example 21, 4-((1-(((1-aminoisoquinolin-5-yl)amino)methyl)-2-(2-(bicyclo[2.2.2]octan-1-yl)acetyl)-2-azabicyclo[2.1.1]hexan-4-yl)methoxy)-1,6-dimethylpyridin-2(1H)-one]	0.01 to 0.1 µM
